Experiments:
[1] = Determination of the partition coefficient (n-octanol/H2O, radioactivity counting); type: physicochemical; conditions: ambient temperature, average of three measurements, read-out: Log P value
Method: Determination of the partition coefficient:
n-Octanol (1 mL) and H2O (1 mL) were mixed for 20 min at ambient temperature before adding 10 μL of radioactively labeled compound. The tube was vigorously agitated by a vortex mixer for 30 min at ambient temperature. Three aliquots of 100 μL were collected from each phase and counted in a Packard Cobra Gamma counter. Log P was calculated as follows: log P=log (concentration of radioactivity in the n-octanol phase/concentration of radioactivity in the aqueous phase). The values provided are an average of the three measurements carried out.

[2] = system: rhabdomyosarcoma tumor (hypoxia); test: In vivo PET (TEP) imaging of hypoxia in the animal rhabdomyosarcoma model; conditions: for SUVMax (average) / SUVMean (average): tumor to muscle
Method: The evaluations of the radio-tracers were carried out in the animal rhabdomyosarcoma model provided by Biomedical Magnetic Resonance Research Group (REMA)—Catholic University of Louvain (UCL)—Belgium according to Peeters et al. (Int J Radiat Oncol, 2015) in the comparative study of [^18F]HX-4, [^18F]FMISO and [^18F]FAZA. The in vivo imaging was carried out using an Inveon μTEP/μTDM camera (Siemens). The animals were handled under gaseous anesthesia using isoflurane (induction at 5%, maintenance between 1.5% and 2.5% in 70% N2O/30% O2). The body temperature of the animals was maintained above 37.5° C. while the rate of respiration was constantly monitored, in order to obtain stable anesthesia reproducible from one animal to another. A catheter was placed without surgery (Insight Autoguard 24 Ga) at the caudal vein in order to allow the administration of radio-tracers. TDM acquisition is systematically performed prior to TEP imaging and is used for corrections of attenuation and diffusion of photos as well as for obtaining anatomical data. Acquisitions and reconstructions were performed with a coincidence time of 3.4 ns, an energy window of 350 to 650 keV, the OSEM3D-MAP reconstruction algorithm (respectively 2 and 18 iterations) with the “fastMAP” option, uniform variance and a required resolution of 2.26 mm. 128×128×159 pixels per image, with a voxel size of 0.776×0.776×0.796 mm^3. The images were normalized in SUV (Standardized Uptake Value) and analyzed with the PMOD (3.6 PMODTechnologies) software, by manual delimitation of the volumes of interest (VOIs) “entire tumor” and “muscle” and simultaneously using the 2 imaging modes.
The animals were imaged for 180 consecutive minutes starting with the injection of the radiotracer [^18F]AEL-3156 (23±3 MBq) or [^18F]FMISO (18±3 MBq) coinciding with the beginning of TEP acquisition. The 180 min post-injection time is known to be optimal for this animal model, for obtaining imaging of hypoxia with TEP tracers such as [^18F]FMISO and [^18F]HX4. After TEP imaging and before waking, the animals systematically received an intraperitoneal injection of saline solution (2 mL) in order to rehydrate them.

O=[N+]([O-])c1nccn1Cn1cc(CC(CCC[18F])S(=O)(=O)O)nn1 (centres unmarked) [[^18F]AEL-3156]
logP at 30 min [1]: -2.9
SUVMax (average) ([2]; 20-30 min of acquisition): 5.20
SUVMean (average) ([2]; 20-30 min of acquisition): 2.94
SUVMax (average) ([2]; 40-60 min of acquisition): 5.10
SUVMean (average) ([2]; 40-60 min of acquisition): 2.93
SUVMax (average) ([2]; 160-180 min of acquisition): 2.90
SUVMean (average) ([2]; 160-180 min of acquisition): 1.51
tumor to muscle ratio in SUVmax ([2]; at 20-30 min of acquisition): 5
tumor to muscle ratio in SUVmean ([2]; at 20-30 min of acquisition): 3
time for which the optimal tumor to muscle ratio remains constant ([2]; post-injection): at least 60 min

O=[N+]([O-])c1nccn1CC(O)C[18F] (centres unmarked) [[^18F]FMISO]
SUVMax (average) ([2]; 20-30 min of acquisition): 2.04
SUVMean (average) ([2]; 20-30 min of acquisition): 1.00
SUVMax (average) ([2]; 40-60 min of acquisition): 3.64
SUVMean (average) ([2]; 40-60 min of acquisition): 1.45
SUVMax (average) ([2]; 160-180 min of acquisition): 5.42
SUVMean (average) ([2]; 160-180 min of acquisition): 3.42
tumor to muscle ratio in SUVmax ([2]; at 20-30 min of acquisition): 1.7
tumor to muscle ratio in SUVmean ([2]; at 20-30 min of acquisition): 1
tumor to muscle ratio, times lower than [^18F]AEL-3156 ([2]; at 20-30 min of acquisition): 3 times
time after which the optimal tumor to muscle ratio is achieved ([2]; of acquisition): 180 min
